Bridge positions count the residues as written; N and C are the ends. Square brackets hold non-standard residues; d marks the D form. Peptide text beside a SMILES is read from it. * marks the point of attachment. ξ: configuration not given here. Phe(4-COOH) = N[C@@H](Cc1ccc(C(=O)O)cc1)C(=O)O; Bip = N[C@@H](Cc1ccc(-c2ccccc2)cc1)C(=O)O; Phe(3-Me) = Cc1cccc(C[C@H](N)C(=O)O)c1; NH(CH2)12COOH = O=C(O)CCCCCCCCCCCCN*; Val(3-OH) = CC(C)(O)[C@H](N)C(=O)O; hArg = N=C(N)NCCCC[C@H](N)C(=O)O; Cha = N[C@@H](CC1CCCCC1)C(=O)O; Cit = NC(=O)NCCC[C@H](N)C(=O)O; Ile(3ξ) = CCC(C)[C@H](N)C(=O)O; aThr = C[C@H](O)[C@H](N)C(=O)O; Thr(3ξ) = CC(O)[C@H](N)C(=O)O; Pen = CC(C)(S)[C@H](N)C(=O)O; 12Ado = NCCCCCCCCCCCC(=O)O; Carboxymethyl = O=C(O)C*; Orn = NCCC[C@H](N)C(=O)O; Aun = NCCCCCCCCCCC(=O)O; Dab = NCC[C@H](N)C(=O)O; Dap = NC[C@H](N)C(=O)O; AEEA = NCCOCCOCC(=O)O; ξDab = NCCC(N)C(=O)O

The target of this experiment is T1, PD-1/PD-L1 interaction (PE-labeled human PD-L1-Ig binding to Jurkat cell line over-expressing human PD-1) (Homo sapiens, UniProt Q15116).
T1 construct: expressed in transfected cells; host or cells: Jurkat
T1 sequence (Q15116 25-288): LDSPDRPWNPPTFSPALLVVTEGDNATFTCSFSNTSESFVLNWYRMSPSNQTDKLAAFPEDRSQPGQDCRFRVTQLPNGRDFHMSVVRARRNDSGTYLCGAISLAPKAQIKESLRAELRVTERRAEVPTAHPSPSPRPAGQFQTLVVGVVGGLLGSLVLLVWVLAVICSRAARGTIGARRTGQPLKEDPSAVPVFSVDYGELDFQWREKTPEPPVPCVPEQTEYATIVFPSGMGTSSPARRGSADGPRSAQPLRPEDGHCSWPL
In words: Jurkat-PD-1 Cell Binding High-Content Screening Assay (CBA). The class given is cell-based. Conditions: Jurkat cell line over-expressing human PD-1; PE-labeled PD-L1-Ig 20 nM final; read-out: Jurkat hPD1-PDL1 IC50. A digest of the protocol:
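Jurkat cells stably over-expressing human PD-1 were seeded in DMEM with 10% fetal calf serum and pre-incubated with compound for 2 h at 37° C. PE-labeled human PD-L1-Ig was then added at 20 nM final for 1 hour, after which cells were fixed with paraformaldehyde, Hoechst-stained and imaged by high-content microscopy.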
As a reminder, the IC50 is the concentration needed to halve the response being measured. With `Cc1cccc(C[C@@H]2NC(=O)[C@H](CC(=O)O)NC(=O)[C@H](Cc3ccc(OCC(=O)O)cc3)NC(=O)[C@H](CN)NC(=O)CSC(C)(C)[C@@H](C(=O)N[C@@H](CCN)C(=O)NCCCCCCCCCCC(=O)O)NC(=O)[C@H]([C@@H](C)O)NC(=O)[C@H](C(C)C)NC(=O)[C@H](CC3CCCCC3)NC(=O)[C@H](CCN)NC(=O)[C@@H](CC(C)C)NC(=O)[C@H](CCCN)NC(=O)[C@H](Cc3ccc(O)cc3)NC(=O)[C@H](Cc3ccc(-c4ccccc4)cc3)NC(=O)[C@H](C(C)C)NC2=O)c1` [Compound 2753] ({CH2CO}-[Dap]Y(Carboxymethyl)D[Phe(3-Me)]V[Bip]Y[Orn][dL][Dab][Cha]VT[Pen][Dab][Aun]-OH; thioether N-14), the IC50 turned out to be 113 nM. For `CC(C)C[C@H]1NC(=O)[C@H](CCCN)NC(=O)[C@H](C(C)C)NC(=O)[C@H](Cc2ccc(-c3ccccc3)cc2)NC(=O)[C@H](C(C)C)NC(=O)[C@H](Cc2c[nH]c3ccccc23)NC(=O)[C@H](CC(=O)O)NC(=O)[C@H](Cc2ccc(OCC(=O)O)cc2)NC(=O)[C@H](CCCCNC(=N)N)NC(=O)CSC[C@@H](C(=O)NCCOCCOCC(=O)NCCCCCCCCCCC(=O)O)NC(=O)[C@H](CCCN)NC(=O)[C@H](C(C)C)NC(=O)[C@H](CC2CCCCC2)NC(=O)[C@H](CCN)NC1=O` [Compound 3262] ({CH2CO}-[hArg]Y(Carboxymethyl)DWV[Bip]V[Orn][dL][Dab][Cha]V[Orn]C[AEEA][Aun]-OH; thioether N-14) the value was 6.7 nM. For `Cc1cccc(C[C@@H]2NC(=O)[C@H](CC(=O)O)NC(=O)[C@H](Cc3ccc(OCC(=O)O)cc3)NC(=O)[C@H](CCCNC(=N)N)NC(=O)CSC[C@@H](C(=O)N[C@@H](CCN)C(=O)NCCCCCCCCCCC(=O)O)NC(=O)[C@H](CCC(=O)O)NC(=O)[C@H](C(C)C)NC(=O)[C@H](CC3CCCCC3)NC(=O)[C@H](CCN)NC(=O)[C@@H](CC(C)C)NC(=O)[C@H](CCCN)NC(=O)[C@H](Cc3ccc(O)cc3)NC(=O)[C@H](Cc3ccc(-c4ccccc4)cc3)NC(=O)[C@H](Cc3ccc(O)cc3)NC2=O)c1` [Compound 3381] ({CH2CO}-RY(Carboxymethyl)D[Phe(3-Me)]Y[Bip]Y[Orn][dL][Dab][Cha]VEC[Dab][Aun]-OH; thioether N-14) the value was 8.9 nM; for `Cc1cccc(C[C@@H]2NC(=O)[C@H](CC(=O)O)NC(=O)[C@H](Cc3ccc(OCC(=O)O)cc3)NC(=O)[C@H](C(C)O)NC(=O)CSC[C@@H](C(=O)NC(CCN)C(=O)NCCCCCCCCCCC(=O)O)NC(=O)[C@H](C(C)O)NC(=O)[C@H](C(C)C)NC(=O)[C@H](CC3CCCCC3)NC(=O)[C@H](Cc3cnc[nH]3)NC(=O)[C@@H](CC(C)C)NC(=O)[C@H](CCCN)NC(=O)[C@H](CCCNC(N)=O)NC(=O)[C@H](Cc3ccc(-c4ccccc4)cc3)NC(=O)[C@H](C(C)C)NC2=O)c1` (stereo partly drawn) [Compound 3503] ({CH2CO}-[Thr(3ξ)]Y(Carboxymethyl)D[Phe(3-Me)]V[Bip][Cit][Orn][dL]H[Cha]V[Thr(3ξ)]C[ξDab][Aun]-OH; thioether N-14), 38.2 nM. Turning to `CCC(C)[C@@H]1NC(=O)[C@H](Cc2ccc(-c3ccccc3)cc2)NC(=O)[C@H](CC(C)C)NC(=O)[C@H](Cc2c[nH]c3ccccc23)NC(=O)[C@H](CC(=O)O)NC(=O)[C@H](Cc2ccc(OCC(=O)O)cc2)NC(=O)[C@H]([C@H](C)O)NC(=O)CSC[C@@H](C(=O)NCCOCCOCC(=O)N[C@@H](CCCCN)C(=O)NCCCCCCCCCCC(=O)O)NC(=O)[C@H](CO)NC(=O)[C@H](C(C)C)NC(=O)[C@H](CC(C)C)NC(=O)[C@H](CCN)NC(=O)[C@@H](CC(C)C)NC(=O)[C@H](CCCN)NC1=O` (stereo partly drawn) [Compound 3081] ({CH2CO}-[aThr]Y(Carboxymethyl)DWL[Bip][Ile(3ξ)][Orn][dL][Dab]LVSC[AEEA]K[Aun]-OH; thioether N-14), the 50% inhibitory concentration (IC50) is 20.7 nM. The value for `Cc1cccc(C[C@@H]2NC(=O)[C@H](CC(=O)O)NC(=O)[C@H](Cc3ccc(OCC(=O)O)cc3)NC(=O)[C@H](CCN)NC(=O)CSC[C@@H](C(=O)N[C@@H](CCN)C(=O)NCCOCCOCC(=O)NCCOCCOCC(=O)NCCCCCCCCCCCCC(=O)O)NC(=O)[C@H](CO)NC(=O)[C@H](C(C)(C)O)NC(=O)[C@H](CC3CCCCC3)NC(=O)[C@H](CCN)NC(=O)[C@@H](CC(C)C)NC(=O)[C@H](CCCN)NC(=O)[C@H](Cc3ccc(OCC(=O)O)cc3)NC(=O)[C@H](Cc3ccc(-c4ccccc4)cc3)NC(=O)[C@H](Cc3ccc(OCC(=O)O)cc3)NC2=O)c1` [Compound 3813] ({CH2CO}-[Dab]Y(Carboxymethyl)D[Phe(3-Me)]Y(Carboxymethyl)[Bip]Y(Carboxymethyl)[Orn][dL][Dab][Cha][Val(3-OH)]SC[Dab][AEEA][AEEA]-{NH(CH2)12COOH}; thioether N-14) was 6.9 nM; that for `CC(=O)NCCCC[C@@H]1NC(=O)[C@H](Cc2ccc(-c3ccccc3)cc2)NC(=O)[C@H](CCNC(C)=O)NC(=O)[C@H](Cc2cccc(C)c2)NC(=O)[C@H](CC(=O)O)NC(=O)[C@H](Cc2ccc(OCC(=O)O)cc2)NC(=O)[C@H](Cc2ccc(OCC(=O)O)cc2)NC(=O)CSC[C@@H](C(=O)N[C@@H](CCN)C(=O)N[C@@H](CO)C(=O)NCCCCCCCCCCCC(=O)O)NC(=O)[C@H](Cc2cnc[nH]2)NC(=O)[C@H](C(C)O)NC(=O)[C@H](CC2CCCCC2)NC(=O)[C@H](CCN)NC(=O)[C@@H](CC(C)C)NC(=O)[C@H](CCCN)NC1=O` (stereo partly drawn) [Compound 3646] ({CH2CO}-Y(Carboxymethyl)Y(Carboxymethyl)D[Phe(3-Me)][Dab](Ac)[Bip]K(Ac)[Orn][dL][Dab][Cha][Thr(3ξ)]HC[Dab]S[12Ado]-OH; thioether N-14) was 94.7 nM.

On to `Cc1cccc(C[C@@H]2NC(=O)[C@H](CC(=O)O)NC(=O)[C@H](Cc3ccc(OCC(=O)O)cc3)NC(=O)[C@H](CN)NC(=O)CSC[C@@H](C(=O)N[C@@H](CCN)C(=O)NCCOCCOCC(=O)NCCCCCCCCCCC(=O)O)NC(=O)[C@H](CCCN)NC(=O)[C@H](Cc3ccc(O)cc3)NC(=O)[C@H](CC3CCCCC3)NC(=O)[C@H](CCN)NC(=O)[C@@H](CC(C)C)NC(=O)[C@H](CCCN)NC(=O)[C@H](C(C)C)NC(=O)[C@H](Cc3ccc(-c4ccccc4)cc3)NC(=O)[C@H](Cc3ccc(O)cc3)NC2=O)c1` [Compound 2574] ({CH2CO}-[Dap]Y(Carboxymethyl)D[Phe(3-Me)]Y[Bip]V[Orn][dL][Dab][Cha]Y[Orn]C[Dab][AEEA][Aun]-OH; thioether N-14), for which the half-maximal inhibitory concentration (IC50) was 28.3 nM. For `CC(C)C[C@H]1NC(=O)[C@H](CCCN)NC(=O)[C@H](C(C)C)NC(=O)[C@H](Cc2ccc(-c3ccccc3)cc2)NC(=O)[C@H](C(C)C)NC(=O)[C@H](Cc2c[nH]c3ccccc23)NC(=O)[C@H](CC(=O)O)NC(=O)[C@H](Cc2ccc(C(=O)O)cc2)NC(=O)[C@H](Cc2ccc(OCC(=O)O)cc2)NC(=O)CSC[C@@H](C(=O)NCCCCCCCCCCC(=O)O)NC(=O)[C@H](CCCCN)NC(=O)[C@H](C(C)C)NC(=O)[C@H](CC2CCCCC2)NC(=O)[C@H](CCN)NC1=O` [Compound 2601] ({CH2CO}-Y(Carboxymethyl)[Phe(4-COOH)]DWV[Bip]V[Orn][dL][Dab][Cha]VKC[Aun]-OH; thioether N-14) the value was 18.2 nM.

The values above are taken from patent US20260022142A1, “MACROCYCLIC IMMUNOMODULATORS” (Bristol-Myers Squibb Company, priority 2022, published 2026).
